# Experimental data taken from US5387709A, “Substituted sulfonamides, process of preparation and medicines containing same” (Lipha Lyonnaise Industrielle Pharmaceutique, priority 1990, dated 1995).
# Like-named read-outs stand apart in the source and are kept apart here.
# Key:
# [1] = system: platelets of guinea-pig; test: Inhibition of the platelet aggregation induced by U46619 (BORN test), guinea-pig platelets; assay type: cell-based; conditions: read-out: PLATELET AGGREGATION GUINEA-PIG IC 50
# From the text: (A) Inhibition of the platelet aggregation induced by U46619, a stable analogue of TXA2 (9,11-dideoxy-11α,9α-epoxymethanoprostaglandine F2 α):
# The tests determine a concentration of compound which inhibits at 50% (CI50) a liminar aggregation induced by U46619. The activities of the compounds of the present invention are given in example 108.
# (§1) The products of examples 1 to 107 have been tested for platelet aggregation on guinea-pig and on the contraction of the aorta in rat as described previously.
# [2] = system: rat aorta; test: Inhibition of the U46619 induced rat aorta vasoconstriction; assay type: cell-based; conditions: Rattus norvegicus, contraction by U46619 (142 nM), rat thoracic aorta, 37° C.; read-out: VASOCONSTRICTION RAT AORTA IC 50
# Protocol: (B) Inhibition of the U46619 induced rat aorta vasoconstriction:
# male rats weighing about 300 g are put to death by euthanasia; the thoracic aorta is rapidly taken out. A sample of about 1 cm is cut into a spiral, and placed in a vat containing 20 ml of nutrient medium (Krebs-Henseleit) kept a 37° C. and oxygenated (O2 95%, CO2 5%). The contractions are recorded with an isotonic strain gauge. After a rest of 45 mn, supramaximum contractions are provoked by the addition of an analogue of TXA2 (U46619: 142 nM) to the survival medium. A plateau is generally reached after 10 mn of contact, the latter not exceeding 25 mn. A rest of 30 mn and a plurality of rinses take place after each contraction. The products are added 10 mn after U46619 and allowed to rest 15 mn, after which delay the inhibition is measured. The inhibitory concentration 50 (IC) is determined for each compound studied and on a minimum of 3 aortas. The activities of the compounds of the present invention are described in example 108.
# as §1
Structure (SMILES),"IC50 ([1]; Cavia porcellus, Platelet) [nM]",IC50 [1] [nM],IC50 [2] [nM]
"O=C(O)Cc1ccc(C[C@@H]2CCC[C@H]2NS(=O)(=O)c2ccc(Cl)cc2)cc1 (relative stereo) [Example 1, Trans-4-[[2-[[(4-chlorophenyl)sulfonyl]amino]cyclopentyl]methyl]-benzeneacetic acid]",690,–,–
"O=C(O)Cc1ccc(C[C@@H]2CCC[C@H]2NS(=O)(=O)c2ccc(Cl)cc2)cc1 (relative stereo) [Example 2, Sodium trans-4-[[2-[[(4-chlorophenyl)sulfonyl]amino]-cyclopentyl]methyl]benzene-acetate]",–,720,70
"O=C(O)Cc1ccc(C[C@@H]2CCC[C@@H]2NS(=O)(=O)c2ccc(Cl)cc2)cc1 (relative stereo) [Example 3, Cis-4-[[2-[[(4-chlorophenyl)sulfonyl]amino]cyclopentyl]methyl]benzeneaceticacid]",600,–,60
"O=C(O)Cc1ccc(C[C@@H]2CCC[C@H]2NS(=O)(=O)c2ccc(F)cc2)cc1 (relative stereo) [Example 4, Trans-4-[[2-[[(4-fluorophenyl)sulfonyl]amino]cyclopentyl]methyl]benzeneacetic acid]",23000,–,200
"O=C(O)Cc1ccc(C[C@@H]2CCC[C@H]2NS(=O)(=O)c2ccccc2)cc1 (relative stereo) [Example 6, Trans-4-[[2-[[(phenyl)sulfonyl]amino]cyclopentyl]methyl]benzeneacetic acid]",6300,–,560
"Cc1ccc(S(=O)(=O)N[C@@H]2CCC[C@H]2Cc2ccc(CC(=O)O)cc2)cc1 (relative stereo) [Example 7, Trans-4-[[2-[[(4-methylphenyl)sulfonyl]amino]cyclopentyl]methyl]-benzeneacetic acid]",3300,–,300
"O=C(O)Cc1ccc([C@@H]2CCCC[C@H]2NS(=O)(=O)c2ccc(Cl)cc2)cc1 (relative stereo) [Example 10, Trans-4-[2-[[(4-chlorophenyl)sulfonyl]amino]cyclohexyl]benzeneacetic acid]",1300,–,5000
"O=C(O)Cc1ccc(C[C@@H]2CCCC[C@H]2NS(=O)(=O)c2ccc(Cl)cc2)cc1 (relative stereo) [Example 11, Trans-4-[[2-[[(4-chlorophenyl)sulfonyl]amino]cyclohexyl]methyl]benzeneacetic acid]",390,–,50
"O=C(O)Cc1ccc(OC2CCCC2NS(=O)(=O)c2ccc(Cl)cc2)cc1 (centres unmarked) [Example 9, 4-[2-[[(4-chlorophenyl)sulfonyl]amino]cyclopentyloxy]benzeneacetic acid]",> 20000,–,1000
"O=C(O)Cc1ccc(C2(CNS(=O)(=O)c3ccc(Cl)cc3)CC2)cc1 [Example 12, 4-[1-[[[(4-Chlorophenyl)sulfonyl]amino]methyl]cyclopropyl]benzeneacetic acid]",1800,–,70
"CS(=O)(=O)c1ccc(S(=O)(=O)NCC2(Cc3ccc(CCO)cc3)CCCC2)cc1 [Example 44, N-[[1-[[4-(2-Hydroxyethyl)phenyl]methyl]cyclopentyl]methyl]-4-methylsulfonylbenzenesulfonamide]",> 5000,–,–
"O=S(=O)(NCC1(Cc2ccc(CCO)cc2)CCCC1)c1ccc(OC(F)(F)F)cc1 [Example 45, N-[[1-[[4-(2-Hydroxyethyl)phenyl]methyl]cyclopentyl]methyl]-4-trifluoromethoxybenzenesulfonamide]",> 5000,–,–
"O=C(O)Cc1ccc(CC2(CNS(=O)(=O)c3ccc4ccccc4c3)CCCC2)cc1 [Example 102, 4-[[1-[[[(Naphthalen-2-yl)sulfonyl]amino]methyl]cyclopentyl]methyl]benzeneacetic acid]",1000,–,–
"O=C(O)Cc1ccc(CC2(CNS(=O)(=O)c3cccc4cccnc34)CCCC2)cc1 [Example 106, 4-[[1-[[[(Quinol-8-yl)sulfonyl]amino]methyl]cyclopentyl]methyl]benzeneacetic acid]",> 5000,–,–
